# Measurements reported in patent US20230255864A1, “NOVEL COMPOSITIONS COMBINING HEMP DERIVATIVES AND AT LEAST ONE PEPTIDE AND USE THEREOF” (FRANCE COSMEPHYL-LAB, priority 2020, published 2023).
# Where “and” joins values, the source holds several entries; their conditions need not be identical. Equal entries are not always repeated.
# System: RAW 267.4 murine macrophages
# Experiment: Cell viability of murine macrophages (WST-1 mitochondrial respiration), in parallel with NO release
# Type: cell-based
# Procedure: MURINS RAW 267.4 Macrophage cell line (Sigma-Aldrich, No. P6110401, Lot. 091006), low number of passages (less than 50).
# Complete medium: DMEM with stabilized L-glutamine (Dulbecco's Minimum Essential Medium, PAN BIOTECH. Lot 974251) supplemented with Penicillin 100 IU/ml and streptomycin 100 μg/m1 (PAN BIOTECH, Lot 225614), and 10% inactivated calf serum (PAN BIOTECH, Lot P460518), pH 7.2, freshly prepared, stored for less than 3 weeks.
# Cannabidiol (CBD) is diluted in DMSO (10 mg/mL storage solution), and subjected to an ultrasonic bath for 20 minutes. The Neutrazen™ solution is diluted in PBS (Phosphate buffer saline, Sigma-Aldrich).
# RAW 267.4 murine macrophages were inoculated into 48-well tissue culture plates at a concentration of 1.10^5 cells/ml (200 μl/well) and incubated for 24 hours at 37° C. (5% CO2).
# At the end of the incubation period, the culture medium was replaced with 200 μl of medium containing the appropriate concentrations of the material to be tested, and the cells were incubated at 37° C. (5% CO2) for one hour.
# At the end of the incubation period, pro-inflammatory E. coli LPS was added to the cell cultures (1 μg/ml. Then the cells were incubated at 37° C. (5% CO2) for 24 hours.
# In parallel with the evaluation of the release of NO, the cell viability was measured to validate the tests. Vital Stain Reagent WST-1 was used to measure cellular mitochondrial respiration. For this, the culture medium was decanted and 100 μl of WST-1 reagent ( 1/10 dilution) were added to each well. After an incubation period of 30 min at 37° C. (5% CO2), the Optical Density (OD) of each well was read at a wavelength of 450 nm by an Infinite M200 Pro fluorescence-luminescence reader (TECAN). The results obtained for the wells treated with the test material were compared with those of the untreated control wells (DMSO, 100% viability) and converted into percentage values.
# Inhibition of NO release and inhibition of cell viability were expressed as a percentage relative to the negative controls: […]
# The concentrations of test material causing a 50% decrease in NO release (IC50 (NO release)) and a 50% decrease in cell viability (IC50 (cell viability)) respectively were calculated using TableCurve software Version 2.0.
# Analysis of the anti-inflammatory activity and of the cell viability of the cannabidiol/palmitoyl tripeptide-8 (Neutrazen™) association in a mixture by isobologram analysis. For each concentration of Neutrazen™ (0.01, 0.025, 0.05 and 0.1%), different concentrations of CBD are tested (0.01, 0.025, 0.05, 0.1, 0.25, 0.5, 1 and 2.5%) to determine both the production of NO and cell viability.
# The results obtained with the different mixtures of CBD and Neutrazen™ made it possible to calculate the pairs of concentrations corresponding to a 50% reduction in the production of NO and a 50% reduction in cell viability.
smiles,measurement,setting,value
C=C(C)[C@@H]1CCC(C)=C[C@H]1c1c(O)cc(CCCCC)cc1O [CBD],Cell viability (% as compared to the negative control),CBD 0.01 weight % in mixture with NeutraZen 0.01%,99.54% and 101.55%
same,Cell viability (% as compared to the negative control),CBD 0.01 weight % in mixture with NeutraZen 0.025%,101.86%
same,Cell viability (% as compared to the negative control),CBD 0.01 weight % in mixture with NeutraZen 0.05%,101.83% and 101.55%
same,Cell viability (% as compared to the negative control),CBD 0.01 weight % in mixture with NeutraZen 0.1%,100.00%
same,Cell viability (% as compared to the negative control),CBD 0.025 weight % in mixture with NeutraZen 0.01%,99.24% and 100.77%
same,Cell viability (% as compared to the negative control),CBD 0.025 weight % in mixture with NeutraZen 0.025%,100.76% and 101.08%
same,Cell viability (% as compared to the negative control),CBD 0.025 weight % in mixture with NeutraZen 0.05%,101.22% and 100.77%
same,Cell viability (% as compared to the negative control),CBD 0.025 weight % in mixture with NeutraZen 0.1%,100.15%
same,Cell viability (% as compared to the negative control),CBD 0.05 weight % in mixture with NeutraZen 0.01%,98.93% and 100.62%
same,Cell viability (% as compared to the negative control),CBD 0.05 weight % in mixture with NeutraZen 0.025%,96.18% and 100.31%
same,Cell viability (% as compared to the negative control),CBD 0.05 weight % in mixture with NeutraZen 0.05%,100.61% and 100.62%
same,Cell viability (% as compared to the negative control),CBD 0.05 weight % in mixture with NeutraZen 0.1%,99.54% and 100.00%
same,Cell viability (% as compared to the negative control),CBD 0.1 weight % in mixture with NeutraZen 0.01%,100.00% and 102.63%
same,Cell viability (% as compared to the negative control),CBD 0.1 weight % in mixture with NeutraZen 0.025%,96.34% and 99.23%
same,Cell viability (% as compared to the negative control),CBD 0.1 weight % in mixture with NeutraZen 0.05%,100.00%
same,Cell viability (% as compared to the negative control),CBD 0.1 weight % in mixture with NeutraZen 0.1%,99.54%
same,Cell viability (% as compared to the negative control),CBD 0.25 weight % in mixture with NeutraZen 0.01%,89.77% and 93.81%
same,Cell viability (% as compared to the negative control),CBD 0.25 weight % in mixture with NeutraZen 0.025%,88.09% and 89.16%
same,Cell viability (% as compared to the negative control),CBD 0.25 weight % in mixture with NeutraZen 0.05%,100.31%
same,Cell viability (% as compared to the negative control),CBD 0.25 weight % in mixture with NeutraZen 0.1%,97.40% and 98.61%
same,Cell viability (% as compared to the negative control),CBD 0.5 weight % in mixture with NeutraZen 0.01%,7.18% and 6.81%
same,Cell viability (% as compared to the negative control),CBD 0.5 weight % in mixture with NeutraZen 0.025%,7.33% and 7.43%
same,Cell viability (% as compared to the negative control),CBD 0.5 weight % in mixture with NeutraZen 0.05%,9.16% and 7.59%
same,Cell viability (% as compared to the negative control),CBD 0.5 weight % in mixture with NeutraZen 0.1%,9.47% and 8.20%
same,Cell viability (% as compared to the negative control),CBD 1 weight % in mixture with NeutraZen 0.01%,5.95% and 5.57%
same,Cell viability (% as compared to the negative control),CBD 1 weight % in mixture with NeutraZen 0.025%,5.34% and 4.95%
same,Cell viability (% as compared to the negative control),CBD 1 weight % in mixture with NeutraZen 0.05%,7.43%
same,Cell viability (% as compared to the negative control),CBD 1 weight % in mixture with NeutraZen 0.1%,8.40% and 7.59%
same,Cell viability (% as compared to the negative control),CBD 2.5 weight % in mixture with NeutraZen 0.01%,5.65% and 4.33%
same,Cell viability (% as compared to the negative control),CBD 2.5 weight % in mixture with NeutraZen 0.025%,4.49%
same,Cell viability (% as compared to the negative control),CBD 2.5 weight % in mixture with NeutraZen 0.05%,7.79% and 6.97%
same,Cell viability (% as compared to the negative control),CBD 2.5 weight % in mixture with NeutraZen 0.1%,7.63% and 6.35%
same,Cell viability (% as compared to the negative control),sample alone at 0.01 weight %,99.69% and 100.15%
same,Cell viability (% as compared to the negative control),sample alone at 0.025 weight %,99.85% and 99.23%
same,Cell viability (% as compared to the negative control),sample alone at 0.05 weight %,94.50% and 93.81%
same,Cell viability (% as compared to the negative control),sample alone at 0.1 weight %,51.15% and 55.11%
same,Cell viability (% as compared to the negative control),sample alone at 0.25 weight %,5.65% and 5.73%
same,Cell viability (% as compared to the negative control),sample alone at 0.5 weight %,3.97% and 3.25%
same,Cell viability (% as compared to the negative control),sample alone at 1 weight %,1.98% and 1.86%
same,Cell viability (% as compared to the negative control),sample alone at 2.5 weight %,1.98% and 2.14% and 0.46%
